In patent publication US10457673B2, “Heteroatom containing deoxyuridine triphosphatase inhibitors” (University of Southern California, priority 2014, dated 2019):

Experiments:
[1] = tested on: colorectal (HCT116 and SW620) cell line models; assay: MTS growth inhibition assay; format: cell-based; conditions: increasing concentrations of 5-FU between 0 and 100 μmol/L; both colorectal cancer cell lines evaluated
Description: The Cell Titer AQueous MTS assay (Promega) is carried out according to the manufacturers guidelines. […] The combination effect is determined by the combination index (CI) method utilizing Calcusyn software (Biosoft, Ferguson, Mo.). Fraction affected (FA) is calculated from the percent growth inhibition: FA=[…]. CI values <1, synergism; 1-1.2, additive and >1.2, antagonism.
MTS growth inhibition assays are performed to evaluate the effectiveness of the test compounds alone and in combination with the fluoropyrimidine thymidylate synthase (TS) inhibitor 5-fluorouracil (5-FU) at inhibiting the growth of colorectal (HCT116 and SW620) cell line models. […] Simultaneous treatment with increasing concentrations of 5-FU and a test compound at fixed concentrations of 25 μmol/L is determined.

[2] = tested on: colorectal (HCT116), breast (MCF-7) and non-small cell lung (H1299, A549, H358 and H460) cell line models; assay: Colony forming assay; format: cell-based; conditions: increasing concentrations of FUdR between 0.5 and 2.5 μmon; all cell lines evaluated
Description: Colony forming assay showing the ability of colon (SW620, HCT116), non-small cell lung (A549, H460, H1299 and H358) and breast (MCF7) cancer cells to survive and proliferate following transient 24 hour exposure to test compounds, FUdR and combinations are determined. Specifically, cells are seeded at densities between 50 and 100 cells/well in 24-well plates. […] After 24 hours, drug is removed, cells are rinsed and allowed to outgrow for 10-14 days. At the conclusion of the outgrowth, cells are fixed in 60% ice cold methanol and stained with 0.1% crystal violet, scanned and counted. Data is presented as percentage of untreated controls (mean±SD). Fraction affected and combination indexes are calculated according to the method of Chou and Talalay where <1 is indicative of a synergistic drug interaction.
In colorectal cancer cells, concentrations of test compounds ranging e.g., from 3.1 μmol/L to 50 μmol/L are combined with 0.5 μmol/L FUdR in HCT116 cells and 1 μmol/L FUdR in SW620 cells.

O=c1[nH]cc(F)c(=O)[nH]1 [Example 5-FU, 5-fluorouracil]
growth inhibition [1]: dose-dependent increases in growth inhibition

O=c1[nH]c(=O)n([C@H]2C[C@H](O)[C@@H](CO)O2)cc1F [FUdR, fluorodeoxyuridine]
colonies formed [2]: dose-dependent decreases in colonies formed
